Source: patent publication US20240327393A1 (SIRONAX LTD., priority 2021, published 2024)

Each molecule was assayed on HT-1080 (ATCC, CCL-121) cells (assay: HT-1080 cell viability assay with ferroptosis inducer RSL3 (Cell Titer-Glo)). Settings: Homo sapiens; HT-1080 cells treated with RSL3; 3-fold, 10-point dilution, 1.1 μM highest concentration; Table 2; read-out: EC50 (nM), ferroptosis inhibitory activity.
Type: cell-based
Method in brief: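 EC50 was derived by sigmoidal dose-response regression of CellTiter-Glo luminescence viability, expressed relative to untreated wells. Compounds were tested in a ten-point, threefold dilution series (highest 1.1 μM) in the presence of the ferroptosis inducer RSL3. HT-1080 cells had been seeded at 6000 per well and grown overnight first.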

EC50	SMILES
0.1 to 100 nM	CNCCCN1C(=O)COc2cc(Nc3ccc(N4CC(C)OC(C)C4)c(C)c3)ccc21 (stereo not drawn) [Compound 56, 7-((4-(2,6-dimethylmorpholino)-3-methylphenyl)amino)-4-(3-(methylamino)propyl)-2H-benzo[b][1,4]oxazin-3(4H)-one]
0.1 to 100 nM	Cc1cc(Nc2ccc3c(c2)OCC(=O)N3C)ccc1N1CC(C)OC(C)C1 (stereo not drawn) [Compound 52, 7-((4-(2,6-dimethylmorpholino)-3-methylphenyl)amino)-4-methyl-2H-benzo[b][1,4]oxazin-3(4H)-one]
0.1 to 100 nM	COc1ccc(C)cc1Nc1ccc2c(c1)CN(C)C2=O [Compound 231, 5-((2-methoxy-5-methylphenyl)amino)-2-methylisoindolin-1-one]
0.1 to 100 nM	CC1CCN(c2ccc(Nc3ccc4c(c3)CN(C3CCN(C)CC3)C4=O)cc2)CC1 [Compound 249, 5-((4-(4-methylpiperidin-1-yl)phenyl)amino)-2-(1-methylpiperidin-4-yl) isoindolin-1-one]
1000 to 10000 nM	Cn1c(=O)n(C)c2cc(Nc3ccc(C(=O)N4CCCC4)cc3)ccc21 [Compound 292, 1,3-dimethyl-5-((4-(pyrrolidine-1-carbonyl)phenyl)amino)-1,3-dihydro-2H-benzo[d]imidazol-2-one]
0.1 to 100 nM	CC1CN(c2ccc(Nc3ccc4oc(=O)[nH]c4c3)cc2)CC(C)O1 (stereo not drawn) [Compound 441, 5-((4-(2,6-dimethylmorpholino)phenyl)amino)benzo[d]oxazol-2(3H)-one]
0.1 to 100 nM	CC1CN(c2ccc(Nc3ccc4c(c3)OCC(=O)N4C)c(F)c2)CC(C)O1 (stereo not drawn) [Compound 74, 7-((4-(2,6-dimethylmorpholino)-2-fluorophenyl)amino)-4-methyl-2H-benzo[b][1,4]oxazin-3(4H)-one]
0.1 to 100 nM	Cc1cc(Nc2cc(F)c3c(c2)OCC(=O)N3C)ccc1N1CC(C)OC(C)C1 (stereo not drawn) [Compound 132, 7-((4-(2,6-dimethylmorpholino)-3-methylphenyl)amino)-5-fluoro-4-methyl-2H-benzo[b][1,4]oxazin-3(4H)-one]
0.1 to 100 nM	COc1cc(Nc2ccc(N3CCC(C(F)(F)F)CC3)cc2)cc2c1ccn2C [Compound 395, 4-methoxy-1-methyl-N-(4-(4-(trifluoromethyl)piperidin-1-yl)phenyl)-1H-indol-6-amine]
0.1 to 100 nM	Cc1nc(N2CCC(C(F)(F)F)CC2)ccc1Nc1ccc2c(c1)OCC(=O)N2C [Compound 26, 4-methyl-7-((2-methyl-6-(4-(trifluoromethyl)piperidin-1-yl)pyridin-3-yl)amino)-2H-benzo[b][1,4]oxazin-3(4H)-one]
0.1 to 100 nM	CC(=O)N1CCc2cc(Nc3ccccc3)ccc2C1 [Compound 106, 1-(6-(phenylamino)-3,4-dihydroisoquinolin-2(1H)-yl)ethan-1-one]
1000 to 10000 nM	CN1Cc2cc(Nc3ccc(CN4CCCC4)cc3)ccc2C1=O [Compound 238, 2-methyl-5-((4-(pyrrolidin-1-ylmethyl)phenyl)amino)isoindolin-1-one]
0.1 to 100 nM	COc1cc(N2CCC(C(F)(F)F)CC2)ccc1Nc1ccc2c(c1)n(C)c(=O)n2C [Compound 375, 5-((2-methoxy-4-(4-(trifluoromethyl)piperidin-1-yl)phenyl)amino)-1,3-dimethyl-1,3-dihydro-2H-benzo[d]imidazol-2-one]
0.1 to 100 nM	O=C(C1CC1)N1Cc2ccc(Nc3ccc(N4CCC(C(F)(F)F)CC4)cc3)cc2C1 [Compound 190, cyclopropyl(5-((4-(4-(trifluoromethyl)piperidin-1-yl)phenyl)amino)isoindolin-2-yl)methanone]
0.1 to 100 nM	CNCCN1C(=O)COc2cc(Nc3ccc(C(C)(C)C)cc3)ccc21 [Compound 48, 7-((4-(tert-butyl)phenyl)amino)-4-(2-(methylamino)ethyl)-2H-benzo[b][1,4]oxazin-3(4H)-one]
0.1 to 100 nM	CN1Cc2cc(Nc3ccc(N4CCC(F)(F)CC4)cc3)ccc2C1=O [Compound 172, 5-((4-(4,4-difluoropiperidin-1-yl)phenyl)amino)-2-methylisoindolin-1-one]
0.1 to 100 nM	CN1Cc2cc(Nc3ccc(N4CCCCC4)c(N(C)C)c3)ccc2C1=O [Compound 303, 5-((3-(dimethylamino)-4-(piperidin-1-yl)phenyl)amino)-2-methylisoindolin-1-one]
0.1 to 100 nM	CC1CCN(c2c(F)cc(Nc3ccc4c(c3)CN(C)C4=O)cc2F)CC1 [Compound 192, 5-((3,5-difluoro-4-(4-methylpiperidin-1-yl)phenyl)amino)-2-methylisoindolin-1-one]
0.1 to 100 nM	CC1CCN(c2ccc(Nc3ccc4c(c3)C(=O)N(C)C4)cc2)CC1 [Compound 170, 2-methyl-6-((4-(4-methylpiperidin-1-yl)phenyl)amino)isoindolin-1-one]
0.1 to 100 nM	CN1C(=O)COc2cc(Nc3ccc(N4CCC(CF)CC4)cc3)ccc21 [Compound 23, 7-((4-(4-(fluoromethyl)piperidin-1-yl)phenyl)amino)-4-methyl-2H-benz o[b][1,4]oxazin-3(4H)-one]
0.1 to 100 nM	Cc1cc(Nc2ccc3c(c2)OCC(=O)N3C)cnc1N1CC(C)OC(C)C1 (stereo not drawn) [Compound 143, 7-((6-(2,6-dimethylmorpholino)-5-methylpyridin-3-yl)amino)-4-methyl-2H-benzo[b][1,4]oxazin-3(4H)-one]
0.1 to 100 nM	CNCCCN1C(=O)COc2cc(Nc3ccc(N4CCC(C(F)(F)F)CC4)cc3)ccc21 [Compound 41, 4-(3-(methylamino)propyl)-7-((4-(4-(trifluoromethyl)piperidin-1-yl)phenyl)amino)-2H-benzo[b][1,4]oxazin-3(4H)-one]
0.1 to 100 nM	CN(C)c1cccc(Nc2ccc3c(c2)n(C)c(=O)n3C)c1 [Compound 308, 5-((3-(dimethylamino)phenyl)amino)-1,3-dimethyl-1,3-dihydro-2H-benzo[d]imidazol-2-one]
0.1 to 100 nM	CN1Cc2cc(Nc3ccc(N4CCC(C(F)(F)F)CC4)c(F)c3)ccc2C1=O [Compound 204, 5-((3-fluoro-4-(4-(trifluoromethyl)piperidin-1-yl)phenyl)amino)-2-methylisoindolin-1-one]
0.1 to 100 nM	COc1ncc(Nc2ccc3c(c2)n(C)c(=O)n3C)cn1 [Compound 319, 5-((2-methoxypyrimidin-5-yl)amino)-1,3-dimethyl-1,3-dihydro-2H-benzo[d] imidazole-2-one]

SMILES	EC50
CCCCOc1ccc(Nc2ccc3c(c2)OCC(=O)N3C)cn1 [Compound 12, 7-((6-butoxypyridin-3-yl)amino)-4-methyl-2H-benzo[b][1,4]oxazin-3(4H)-one]	0.1 to 100 nM

Same assay, conditions: Homo sapiens; HT-1080 cells treated with RSL3; 3-fold, 10-point dilution, 1.1 μM highest concentration; Table 3; read-out: EC50 (nM), ferroptosis inhibitory activity

EC50	SMILES
0.1 to 100 nM	COC1CN(c2ccc(Nc3ccc4c(c3)OCC(=O)N4)c(C)c2)C1 [Compound 578, 7-((4-(3-methoxyazetidin-1-yl)-2-methylphenyl)amino)-2H-benzo[b][1,4]oxazin-3(4H)-one]
0.1 to 100 nM	Cc1cc(N2CC(O)(C(F)(F)F)C2)ccc1Nc1ccc2c(c1)OCCC(=O)N2 [Compound 649, 8-[4-[3-hydroxy-3-(trifluoromethyl)azetidin-1-yl]-2-methyl-anilino]-3,5-dihydro-2H-1,5-benzoxazepin-4-one]
0.1 to 100 nM	Cc1cc(N2CCC(C(F)(F)F)C2)ccc1Nc1ccc2c(c1)OCC(=O)N2 (stereo not drawn) [Compound 587, 7-((2-methyl-4-(3-(trifluoromethyl)pyrrolidin-1-yl)phenyl)amino)-2H-benzo[b][1,4]oxazin-3(4H)-one]
0.1 to 100 nM	O=C1COc2cc(Nc3ccc(N4CCC(C(F)(F)F)CC4)nc3)ccc2N1 [Compound 474, 7-((6-(4-(trifluoromethyl)piperidin-1-yl)pyridin-3-yl)amino)-2H-benzo[b][1,4]oxazin-3(4H)-one]
0.1 to 100 nM	Cc1cc(N2CCC(C(F)(F)F)CC2)ccc1Nc1ccc2[nH]c(=O)[nH]c2c1 [Compound 513, 5-((2-methyl-4-(4-(trifluoromethyl)piperidin-1-yl)phenyl)amino)-1,3-dihydro-2H-benzo[d]imidazol-2-one]
0.1 to 100 nM	Cc1cc(N2CCC(C(F)(F)F)CC2)ccc1Nc1ccc2c(c1)OC[C@H](N)C(=O)N2 [Compound 601, (S)-8-(4-(4-(trifluoromethyl)piperidin-1-yl)-2-methylphenylamino)-3-amino-2,3-dihydrobenzo[b][1,4]oxazepin-4(5H)-one]
0.1 to 100 nM	Cc1cc(N2CCC(C(F)(F)F)CC2)ccc1Nc1ccc2c(c1)OC(CN)C(=O)N2 (stereo not drawn) [Compound 592, 2-(aminomethyl)-7-((2-methyl-4-(4-(trifluoromethyl)piperidin-1-yl)phenyl)amino)-2H-benzo[b][1,4]oxazin-3(4H)-one]
0.1 to 100 nM	Cc1cc(N2CCC(C(F)(F)F)CC2)ccc1Nc1ccc2c(c1)CN(C(N)=O)C2 [Compound 545, 5-((2-methyl-4-(4-(trifluoromethyl)piperidin-1-yl)phenyl)amino) isoindoline-2-carboxamide]
0.1 to 100 nM	O=C1COc2cc(Nc3ccc(N4CCC(C(F)(F)F)CC4)cn3)ccc2N1 [Compound 476]
0.1 to 100 nM	Cc1cc(N2CC(C(F)(F)F)C2)ccc1Nc1ccc2c(c1)OCC(=O)N2 [Compound 583, 7-((2-methyl-4-(3-(trifluoromethyl)azetidin-1-yl)phenyl)amino)-2H-benzo[b][1,4]oxazin-3(4H)-one]
0.1 to 100 nM	Cc1cc(N2CCC(C(F)(F)F)CC2)ccc1Nc1ccc2nccn2c1 [Compound 624, N-(2-methyl-4-(4-(trifluoromethyl)piperidin-1-yl)phenyl) imidazo[1,2-a]pyridin-6-amine]
0.1 to 100 nM	Cc1cc(N2CCC(C(F)(F)F)CC2)ccc1Nc1cc(F)c2c(c1)OCC(=O)N2 [Compound 480, 5-fluoro-7-((2-methyl-4-(4-(trifluoromethyl)piperidin-1-yl)phenyl)amino)-2H-benzo[b][1,4]oxazin-3(4H)-one]
0.1 to 100 nM	Cc1cc(N2CC(OC(C)C)C2)ccc1Nc1ccc2c(c1)OCC(=O)N2 [Compound 640, 7-((4-(3-isopropoxyazetidin-1-yl)-2-methylphenyl)amino)-2H-benzo[b][1,4]oxazin-3(4H)-one]
